From patent US8889874B2, “Imidazolone-chalcone derivatives as potential anticancer agent and process for the preparation thereof” (Council of Scientific and Industrial Research, priority 2010, dated 2014)
Where two headings read alike, the source gives them in different places.

Assays:
Assay in all cases: NCI anticancer screen, SRB assay, 48 h
Format in all cases: cell-based, human
OVCAR-5 (ovarian) = tested on: OVCAR-5 (ovarian)
Outline: (§1)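 Compounds were tested across fifty three human cancer cell lines from nine tumour types. Each line got a dose-response curve of at least five concentrations at 10-fold dilutions, with continuous drug exposure and sulforhodamine B protein staining to estimate viability or growth.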

SK-MEL-5 (melanoma) = tested on: SK-MEL-5 (melanoma)
Outline: as §1

UO-31 (renal) = tested on: UO-31 (renal)
Outline: as §1

NCI/ADR-RES (ovarian) = tested on: NCI/ADR-RES (ovarian)
Outline: as §1

SF-268 (CNS) = tested on: SF-268 (CNS)
Outline: as §1

HCT-116 (colon) = tested on: HCT-116 (colon)
Outline: as §1

MDA-MB-435 (melanoma) = tested on: MDA-MB-435 (melanoma)
Outline: as §1

OVCAR-4 (ovarian) = tested on: OVCAR-4 (ovarian)
Outline: as §1

UACC-257 (melanoma) = tested on: UACC-257 (melanoma)
Outline: as §1

786-0 (renal) = tested on: 786-0 (renal)
Outline: as §1

[1] = tested on: HOP-62 (non-small cell lung); settings: for GI50: Homo sapiens
Outline: as §1

[2] = tested on: K-562 (leukemia cell line)
Outline: as §1

SNB-19 (CNS) = tested on: SNB-19 (CNS)
Outline: as §1

MCF7 (breast) = tested on: MCF7 (breast)
Outline: as §1

[3] = tested on: NCI-H322M (non-small cell lung)
Outline: as §1

RXF 393 (renal) = tested on: RXF 393 (renal)
Outline: as §1

MALME-3M (melanoma) = tested on: MALME-3M (melanoma)
Outline: as §1

HCT-15 (colon) = tested on: HCT-15 (colon)
Outline: as §1

[4] = tested on: NCI-H226 (non-small cell lung); settings: Homo sapiens
Outline: as §1

OVCAR-8 (ovarian) = tested on: OVCAR-8 (ovarian)
Outline: as §1

SW-620 (colon) = tested on: SW-620 (colon)
Outline: as §1

[5] = tested on: RPMI-8226 (leukemia cell line)
Outline: as §1

[6] = tested on: EKVX (non-small cell lung); settings: for GI50: Homo sapiens
Outline: as §1

SK-OV-3 (ovarian) = tested on: SK-OV-3 (ovarian)
Outline: as §1

U251 (CNS) = tested on: U251 (CNS)
Outline: as §1

CAKI-1 (renal) = settings: for GI50: Homo sapiens
Outline: as §1

UACC-62 (melanoma) = tested on: UACC-62 (melanoma)
Outline: as §1

[7] = tested on: NCI-H522 (non-small cell lung)
Outline: as §1

TK-10 (renal) = tested on: TK-10 (renal)
Outline: as §1

[8] = Homo sapiens, 48 h exposure, SRB, read-out: GI50
[9] = Homo sapiens, read-out: pGI50 (-log of molar concentration causing 50% inhibition of net cell growth) (converted)
[10] = 48 h exposure, SRB, read-out: GI50
[11] = read-out: pGI50 (-log of molar concentration causing 50% inhibition of net cell growth) (converted)

## O=C(/C=C/c1cccc(O)c1)c1cccc(-n2cc(-c3ccccc3)[nH]c2=O)c1 [4a, 1-3-[(E)-3-(3-hydroxyphenyl)-2-propenoyl]phenyl-4-phenyl-2,3-dihydro-1H-2-imidazolone]
OVCAR-5 (ovarian); [8]
  GI50: 5.44 µM
OVCAR-5 (ovarian); [9]
  GI50: 5.5 µM
SK-MEL-5 (melanoma); [8]
  GI50: 3.18 µM
SK-MEL-5 (melanoma); [9]
  GI50: 3.16 µM
UO-31 (renal); [8]
  GI50: 2.16 µM
UO-31 (renal); [9]
  GI50: 2.14 µM
NCI/ADR-RES (ovarian); Homo sapiens, NCI/ADR-RES, NCl/ADR-RES, 48 h exposure, SRB, read-out: GI50
  GI50: 3.73 µM
NCI/ADR-RES (ovarian); Homo sapiens, NCI/ADR-RES, read-out: pGI50 (-log of molar concentration causing 50% inhibition of net cell growth) (converted)
  GI50: 3.72 µM
SF-268 (CNS); [8]
  GI50: 4.53 µM
SF-268 (CNS); [9]
  GI50: 4.57 µM
HCT-116 (colon); [8]
  GI50: 3.02 µM
HCT-116 (colon); [9]
  GI50: 3.02 µM
MDA-MB-435 (melanoma); [8]
  GI50: 3.12 µM
MDA-MB-435 (melanoma); [9]
  GI50: 3.09 µM
OVCAR-4 (ovarian); [8]
  GI50: 5.3 µM
OVCAR-4 (ovarian); [9]
  GI50: 5.25 µM
UACC-257 (melanoma); [8]
  GI50: 7.68 µM
UACC-257 (melanoma); [9]
  GI50: 7.76 µM
786-0 (renal); [8]
  GI50: 2.98 µM
786-0 (renal); [9]
  GI50: 2.95 µM
[1]; [10]
  GI50: 6.93 µM
[1]; [11]
  GI50: 6.92 µM
[2]; Homo sapiens, K562, 48 h exposure, SRB, read-out: GI50
  GI50: 3.35 µM
[2]; Homo sapiens, K562, read-out: pGI50 (-log of molar concentration causing 50% inhibition of net cell growth) (converted)
  GI50: 3.39 µM
SNB-19 (CNS); [8]
  GI50: 10.9 µM
SNB-19 (CNS); [9]
  GI50: 11 µM
MCF7 (breast); [8]
  GI50: 2.47 µM
MCF7 (breast); [9]
  GI50: 2.45 µM
[3]; [8]
  GI50: 10.6 µM
[3]; [9]
  GI50: 10.7 µM
RXF 393 (renal); Homo sapiens, RXF 393, 48 h exposure, SRB, read-out: GI50
  GI50: 1.89 µM
RXF 393 (renal); Homo sapiens, RXF-393, read-out: pGI50 (-log of molar concentration causing 50% inhibition of net cell growth) (converted)
  GI50: 1.91 µM
MALME-3M (melanoma); Homo sapiens, Malme-3M, read-out: pGI50 (-log of molar concentration causing 50% inhibition of net cell growth) (converted)
  GI50: 6.17 µM
MALME-3M (melanoma); Homo sapiens, MALME-3M, 48 h exposure, SRB, read-out: GI50
  GI50: 6.21 µM
HCT-15 (colon); [8]
  GI50: 3.1 µM
HCT-15 (colon); [9]
  GI50: 3.09 µM
[4]; [10]
  GI50: 24.8 µM
[4]; [11]
  GI50: 24.5 µM
OVCAR-8 (ovarian); [8]
  GI50: 2.8 µM
OVCAR-8 (ovarian); [9]
  GI50: 2.82 µM
SW-620 (colon); [8]
  GI50: 2.41 µM
SW-620 (colon); [9]
  GI50: 2.4 µM
[5]; [8]
  GI50: 2.15 µM
[5]; [9]
  GI50: 2.14 µM
[6]; [10]
  GI50: 15.6 µM
[6]; [11]
  GI50: 15.5 µM
SK-OV-3 (ovarian); [8]
  GI50: 11.1 µM
SK-OV-3 (ovarian); [9]
  GI50: 11.2 µM
U251 (CNS); Homo sapiens, U-251, 48 h exposure, SRB, read-out: GI50
  GI50: 1.61 µM
U251 (CNS); Homo sapiens, U-251, read-out: pGI50 (-log of molar concentration causing 50% inhibition of net cell growth) (converted)
  GI50: 1.62 µM
CAKI-1 (renal); [10]
  GI50: 13.3 µM
CAKI-1 (renal); [11]
  GI50: 13.2 µM
UACC-62 (melanoma); [8]
  GI50: 3.65 µM
UACC-62 (melanoma); [9]
  GI50: 3.63 µM

## COc1cc(/C=C/C(=O)c2cccc(-n3cc(-c4ccc(Cl)cc4)[nH]c3=O)c2)cc(OC)c1OC [5f, 4-(4-chlorophenyl)-1-3-[(E)-3-(3,4,5-trimethoxyphenyl)-2-propenoyl]phenyl-2,3-dihydro-1H-2-imidazolone]
OVCAR-5 (ovarian)
  pGI50 (-log of molar concentration causing 50% inhibition of net cell growth): 5.51
OVCAR-5 (ovarian); [10]
  GI50: 3.11 µM
[7]
  pGI50 (-log of molar concentration causing 50% inhibition of net cell growth): 5.39
[7]; [10]
  GI50: 4.1 µM
SK-MEL-5 (melanoma)
  pGI50 (-log of molar concentration causing 50% inhibition of net cell growth): 5.06
SK-MEL-5 (melanoma); [10]
  GI50: 8.7 µM
UO-31 (renal)
  pGI50 (-log of molar concentration causing 50% inhibition of net cell growth): 5.15
UO-31 (renal); [10]
  GI50: 7.03 µM
NCI/ADR-RES (ovarian); NCI/ADR-RES
  pGI50 (-log of molar concentration causing 50% inhibition of net cell growth): 5.63
NCI/ADR-RES (ovarian); NCl/ADR-RES, 48 h exposure, SRB, read-out: GI50
  GI50: 2.36 µM
SF-268 (CNS)
  pGI50 (-log of molar concentration causing 50% inhibition of net cell growth): 5.29
SF-268 (CNS); [10]
  GI50: 5.07 µM
HCT-116 (colon)
  pGI50 (-log of molar concentration causing 50% inhibition of net cell growth): 5.86
HCT-116 (colon); [10]
  GI50: 1.39 µM
MDA-MB-435 (melanoma)
  pGI50 (-log of molar concentration causing 50% inhibition of net cell growth): 5.44
MDA-MB-435 (melanoma); [10]
  GI50: 3.63 µM
OVCAR-4 (ovarian)
  pGI50 (-log of molar concentration causing 50% inhibition of net cell growth): 4.94
OVCAR-4 (ovarian); [10]
  GI50: 11.4 µM
UACC-257 (melanoma)
  pGI50 (-log of molar concentration causing 50% inhibition of net cell growth): 4.76
UACC-257 (melanoma); [10]
  GI50: 17.4 µM
786-0 (renal)
  pGI50 (-log of molar concentration causing 50% inhibition of net cell growth): 5.67
786-0 (renal); [10]
  GI50: 2.14 µM
[1]
  pGI50 (-log of molar concentration causing 50% inhibition of net cell growth): 4.63
[2]
  pGI50 (-log of molar concentration causing 50% inhibition of net cell growth): 5.43
[2]; [10]
  GI50: 3.69 µM
TK-10 (renal)
  pGI50 (-log of molar concentration causing 50% inhibition of net cell growth): 5.19
TK-10 (renal); [10]
  GI50: 6.46 µM
SNB-19 (CNS)
  pGI50 (-log of molar concentration causing 50% inhibition of net cell growth): 4.79
SNB-19 (CNS); [10]
  GI50: 16.1 µM
MCF7 (breast)
  pGI50 (-log of molar concentration causing 50% inhibition of net cell growth): 5.76
MCF7 (breast); [10]
  GI50: 1.74 µM
[3]
  pGI50 (-log of molar concentration causing 50% inhibition of net cell growth): 4.89
[3]; [10]
  GI50: 12.9 µM
RXF 393 (renal); RXF 393, 48 h exposure, SRB, read-out: GI50
  GI50: 3.22 µM
RXF 393 (renal); RXF-393
  pGI50 (-log of molar concentration causing 50% inhibition of net cell growth): 5.49
MALME-3M (melanoma); MALME-3M
  pGI50 (-log of molar concentration causing 50% inhibition of net cell growth): 4.74
MALME-3M (melanoma); MALME-3M, 48 h exposure, SRB, read-out: GI50
  GI50: 18.1 µM
HCT-15 (colon)
  pGI50 (-log of molar concentration causing 50% inhibition of net cell growth): 5.41
HCT-15 (colon); [10]
  GI50: 3.85 µM
OVCAR-8 (ovarian)
  pGI50 (-log of molar concentration causing 50% inhibition of net cell growth): 5.41
OVCAR-8 (ovarian); [10]
  GI50: 3.85 µM
SW-620 (colon)
  pGI50 (-log of molar concentration causing 50% inhibition of net cell growth): 5.76
SW-620 (colon); [10]
  GI50: 1.75 µM
[5]
  pGI50 (-log of molar concentration causing 50% inhibition of net cell growth): 5.41
[5]; [10]
  GI50: 3.92 µM
[6]
  pGI50 (-log of molar concentration causing 50% inhibition of net cell growth): 4.62
SK-OV-3 (ovarian)
  pGI50 (-log of molar concentration causing 50% inhibition of net cell growth): 4.50
SK-OV-3 (ovarian); [10]
  GI50: 31.4 µM
U251 (CNS)
  pGI50 (-log of molar concentration causing 50% inhibition of net cell growth): 5.67
U251 (CNS); [10]
  GI50: 2.12 µM
CAKI-1 (renal)
  pGI50 (-log of molar concentration causing 50% inhibition of net cell growth): 4.81
UACC-62 (melanoma)
  pGI50 (-log of molar concentration causing 50% inhibition of net cell growth): 5.05
UACC-62 (melanoma); [10]
  GI50: 8.88 µM
